Assay results published in PubChem BioAssay AID179 (DTP/NCI, 2004).
Active and inactive are the calls of the source.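 How the source made its calls: active means compounds giving half or more protection of infected cells from virus-caused growth loss, again on retest; inactive means the rest.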

Tested on: CEM cells HIV-1 protection, formazan growth assay
Assay: NCI AIDS Antiviral Assay
Conditions: for IC50: measured here: growth of uninfected CEM cells
Procedure, shortened: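 Steps: treat uninfected and HIV-1-infected human CEM cells at five drug levels; quantify growth by soluble formazan; retest any compound reaching 50% protection; classify actives from the retest.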

| Structure (SMILES) | EC50 [µM] | IC50 [µM] | outcome |
| --- | --- | --- | --- |
| CC(Oc1ccccc1)C(=O)NN (configuration not stated) | > 200 | > 200 |  |
| N#Cc1c(=O)c2ccccc2n2ccccc12 | > 100 | > 100 |  |
| CC1(C)OC2OC(COC(=O)C=[N+]=[N-])C3OC(C)(C)OC3C2O1 (configuration not stated) | > 200 | > 200 |  |
| Cc1nc2c(O)c3c(c(O)c2nc1C)C1C=CC3CC1 | > 200 | 1.95 |  |
| CCN(CC)c1ccc(N=Nc2ccc(-c3nc4cccnc4s3)cc2)cc1 | > 5.13 | > 5.13 |  |
| Nc1ccc(C(=O)NN2C(=O)C(Cl)C2c2ccccc2)cc1 (configuration not stated) | > 200 | 47.9 |  |
| CC(C)C1=CC23CCC4C(C)(C(=O)O)CCCC4(C)C2CC1C1C(=O)N(c2ccc(N4C(=O)C5C6CC7C8(C)CCCC(C)(C(=O)O)C8CCC7(C=C6C(C)C)C5C4=O)cc2)C(=O)C13 (configuration not stated) | > 55 | 3.8 |  |
| O=c1[nH]n(Cc2ccccn2)c2ccc([N+](=O)[O-])cc12 | > 200 | > 200 |  |
| C=C[C@@](C)(/C=C/c1ccc(O)cc1)CCC=C(C)C | > 200 | 25.1 |  |
| CC(C)CCCC(C)C1CCC2C3CC[C@H]4C[C@H](NC(=O)C=C(c5cc(Cl)c(O)c(C(=O)O)c5)c5cc(Cl)c(O)c(C(=O)O)c5)CC[C@]4(C)C3CC[C@]12C (some centres not stated) | > 100 | 26.3 |  |
| CC(=O)Nc1ccc(-c2nnc(SCC(=O)Nc3ccc([N+](=O)[O-])cc3)o2)cc1 | > 45.7 | 7.94 |  |
| CC1NOC(=O)C1N=Nc1cccc(Cl)c1 (configuration not stated) | 5.25 | 30.2 |  |
| CCCCCCCCCCCC(=O)N(C)CCS(=O)(=O)O |  |  | inactive |
| COC(=O)C(CC(=O)Nc1ccc(Cl)c(Cl)c1)C(=O)C(=O)Nc1ccc(Cl)c(Cl)c1 (configuration not stated) | > 52.5 | > 52.5 |  |
| CC(C)(CO)NC(=O)c1cccs1 | > 200 | > 200 |  |
| C/C(Cc1ccccc1)=N\NC(N)=S |  |  | inactive |

| Structure (SMILES) | EC50 [µM] | IC50 [µM] | outcome |
| --- | --- | --- | --- |
| O=C(/C(=C/c1ccc(F)cc1)c1ccccc1)c1ccccc1 | > 6.61 | > 6.61 |  |
| CCOc1c(OC)cc(CNNc2nccs2)cc1OC | > 200 | 89.1 |  |
| OC(c1cc(C(O)(C(F)(F)F)C(F)(F)F)ncn1)(C(F)(F)F)C(F)(F)F | > 200 | 166 |  |
| CSc1nc(N)n(C(=O)c2ccccc2Br)n1 | > 417 | > 417 |  |
| NC1=NCc2c(sc3c2CCCC3)N1 | > 200 | 18.6 |  |
| C=C(C)C(=O)O[C@H]1C[C@@]23O[C@@H]2CCC(=C[C@H]2OC(=O)C(=C)[C@H]12)COC3O (some centres not stated) | > 195 | 38 |  |
| C=C1N(S(=O)(=O)c2ccc(C)cc2)C(=O)OCC12CCCC2 | > 200 | 44.7 |  |
| C/C=C/C=N/N(C(=O)c1cc([N+](=O)[O-])cc([N+](=O)[O-])c1)C1=NC(c2ccccc2)C(c2ccccc2)=NN1 (configuration not stated) | > 36.3 | > 36.3 |  |
| CC1CN=C(N(C(=O)Nc2ccc(Cl)cc2)c2cccc(Cl)c2)S1 (configuration not stated) |  |  | inactive |
| CCOC(=O)N/N=C(/N)c1cccc(Br)c1 | > 200 | > 200 |  |
| Cc1ccccc1N=Nc1c(-c2ccccc2)nn(C(=O)CC(=O)Nc2cccc(Cl)c2)c1-c1ccccc1 | > 25.1 | > 25.1 |  |
| COC(=O)C1=C(C(=O)OC)SC(=C(N=Nc2ccccc2)c2ccccc2)S1 |  |  | inactive |
| O=C1CCC2CCC(=O)N12 | > 1780 | > 1780 |  |
| COc1ccc(C23CCC(=O)N2CCS3)cc1 (configuration not stated) |  |  | inactive |
| N#CCc1nc(-c2cc3ccc(O)cc3oc2=O)cs1 | > 200 | 26.9 |  |
